Test results taken from patent US6569849B1, “N-Substituted azaheterocyclic compounds” (Novo Nordisk A/S, priority 1996, dated 2003).
Structures can show the parent of a compound that is named as a salt.

Tested on: histamine induced paw oedema
Experiment: Histamine induced paw oedema (rat histamine paw oedema test)
Format: in vivo, male Sprague-Dawley rats
Settings: 1.0 mg/kg, intraperitoneally 15 minutes before anaesthetics; paw swelling 20 minutes after histamine, water plethysmography
Method: Compounds of formula I may be used to treat all painful, hyperalgesic and/or inflammatory conditions in which C-fibres play a pathophysiological role by eliciting neurogenic pain or inflammation, i.e.: The rat histamine paw oedema test was performed essentially as described by Amann et al. (Europ. J. Pharmacol. 279, 227-231, 1995). In brief 250-300 g male Sprague-Dawley rats were anaesthetized with pentobarbital sodium, and placed on a 32 degree (Celsius) heated table. Ten minutes later histamine (50 micoliter, 3 mg/ml) was injected in the right hind paw and 20 minutes hereafter the paw swelling was determined by water plethysmography (Ugo Basile). Test compounds were administered intraperitoneally at 15 minutes before the anaesthetics. Values for inhibition of histamine induced oedema response for some representative compounds are recorded in table 1.

Going from `Cl.O=C(O)[C@@H]1CCCN(C/C=C\CN2c3ccccc3CCc3ccccc32)C1` [Example 4, 1-(4-(10,11-Dihydro-5H-dibenzo[b,f]azepin-5-yl)-(2Z)-butenyl)-(3R)-piperidinecarboxylic Acid Hydrochloride] to `CC(CN1c2ccccc2CCc2ccccc21)CN1CCCCC1C(=O)O` [Example 3, 1-(3-(10,11-Dihydro-5H-dibenzo[b,f]azepin-5-yl)-(2R)-methyl-1-propyl)-(2R)-piperidinecarboxylic Acid Hydrochloride], the “% Oedema inhibition” value rises from 26% to 47%.

Tested on: not given
Experiment: not given
Settings: not given

First: CC(CN1CCC[C@@H](C(=O)O)C1)=C1c2ccccc2CCc2ccccc21.Cl (hydrate or solvate)
Second: O=C(O)[C@@H]1CCCN(C(=O)CC=C2c3ccccc3CCc3ccccc32)C1 [Example 5, 1-(3-(10,11-Dihydro-5H-dibenzo[a,d]cyclohepten-5-ylidene)-1-propionyl)-(3R)-piperidinecarboxylic Acid]
The melting point of the first is higher: 151 to 155 °C for the first, 71 to 76 °C for the second.

Compared with `CCCC(CN1CCC[C@@H](C(=O)O)C1)CN1c2ccccc2CCc2ccccc21.Cl` (stereo partly drawn) (hydrate or solvate), `CC(CN1c2ccccc2CCc2ccccc21)N1CCC[C@@H](C(=O)O)C1.Cl` (stereo partly drawn) (hydrate or solvate) is higher in melting point: 116 to 120 °C for the first, 213 to 223 °C for the second.

First: O=C(O)[C@@H]1CCCN(CC#CCN2c3ccccc3CCc3ccccc32)C1 (hydrate or solvate) [Example 10, (R)-1-(4-(10,11-Dihydro-5H-dibenzo[b,f]azepin-5-yl)-2-butyn-1-yl)-3-piperidinecarboxylic Acid]
Second: CC(CCN1c2ccccc2CCc2ccccc21)N1CCC[C@@H](C(=O)O)C1.Cl (stereo partly drawn) (hydrate or solvate)
The melting point of the first is lower: 153 to 154 °C for the first, 214 to 218 °C for the second.

First: CC(CN1c2ccccc2CCc2ccccc21)CN1CCCCC1C(=O)O (as salt: hydrochloride) (hydrate or solvate) [Example 3, 1-(3-(10,11-Dihydro-5H-dibenzo[b,f]azepin-5-yl)-(2R)-methyl-1-propyl)-(2R)-piperidinecarboxylic Acid Hydrochloride]
Second: Cl.O=C(O)[C@@H]1CCCN(CCC(=O)N2c3ccccc3CCc3ccccc32)C1 (hydrate or solvate)
The melting point of the first is higher: 201 to 216 °C for the first, 180 to 183 °C for the second.

First: Cl.O=C(O)[C@@H]1CCCN(Cc2ccc(C3c4ccccc4CCc4ccccc43)cc2)C1
Second: CN(CCN1CCC[C@@H](C(=O)O)C1)C1c2ccccc2CCc2ccccc21 (hydrate or solvate) [Example 30, (R)-1-(2-(N-(10,11-dihydro-5H-dibenzo[a,d]cyclohepten-5-yl)-N-methylamino)ethyl)-3-piperidinecarboxylic Acid]
The melting point of the first is lower: 167 to 175 °C for the first, 187 to 190 °C for the second.
